In US20100291543A1, “HOMOGENEOUS IN VITRO FEC ASSAYS AND COMPONENTS” (priority 2007, published 2010):
Changes are numbered by the printed parent chain. Names and notes keep the numbering of the source. Values joined by “and” are separate entries in the source; they are usually repeats but may differ in a detail not shown here. Identical values can stand only once. Like-named read-outs stand apart in the source and are kept apart here.

Tests used:
[1] = target: α and ω fragments of TEM-1 beta-lactamase (Escherichia coli, UniProt P62593, A182V/V82I); format: biochemical, E. coli
Description: Nitrocefin (Merck, Australia) is a colorimetric substrate of TEM-1 beta-lactamase that changes colour from yellow to red (OD492) following hydrolysis of the β-lactam ring. […] Assays were performed using a 96-well flat bottom cell-culture plate (TPP, Australia). Nitrocefin stock solutions of 200 or 600 μM were prepared in 50 mM NaH2PO4; 150 mM NaCl; 5% DMSO (Sigma, Australia) pH 7. For each 200 μl reaction, 100 μl of the nitrocefin stock was added to 100 μl of enzyme fragments (with or without Ni^2+) in 50 mM NaH2PO4 150 mM NaCl pH 7. Depending on the final signal required, the concentration of enzyme fragments used per well ranged from 40 nM to 200 nM and the final concentration of the Ni^2+ analyte from 100 μM or 200 μM. Assay components were mixed well by pipetting, incubated for 5 minutes at room temperature. Kinetics of the nitrocefin hydrolysis were read at 492 nm using a SpectraMax190 (Molecular Devices, USA).
In an attempt to improve the signal to noise ratio of forced α and ω fragments complementation, the effect of different buffer additives such as solvents, BSA, detergents, protein denaturants and salts were investigated. […] Assays were performed as described herein.
As a low concentration of solvent could partially denature the enzyme fragments, it was investigated whether a small amount of ethanol, isopropanol, methanol, DMSO and acetonitrile would reduce natural fragment complementation and increase the signal to noise ratio. The final concentrations of each solvent tested were 15%, 7.5%, 3.75%, 1.875%, […] and 0%. Kinetics of the complementation assays was read at 492 nm for 30 minutes. The signal/noise ratio was then calculated according to the maximum rate (mOD/min) from SoftmaxPro. […]
Detergent is widely used to reduce protein-protein interaction or ELISA background; using small amount might help preventing the natural fragment complementation by keeping two fragments apart then increased the signal/noise ratio. […] Reading data collecting time was 30 minutes. The signal/noise ratio was then calculated according to the maximum rate (mOD/min) from SoftmaxPro.
To test the effect of protein denaturants on enzyme fragment complementation, nitrocefin activity assays were performed using a matrix of fragment, substrate and NiSO4 concentrations in the presence of urea or guanidine hydrochloride. In preliminary assays, the complementation of 40 nM fragments was tested in concentrations of urea ranging from 2 M to 62.5 mM and in concentrations of GuHCl that ranged from 1M to 31.25 mM. The assay was prepared as follows: 40 nM of each fragment was added to a two-fold dilution series of urea [from 2 M urea 50 mM NaH2PO4 150 mM NaCl pH7 to 62.5 mM urea 50 mM NaH2PO4 150 mM NaCl pH7] or guanidine hydrochloride [from 1 M GuHCl 50 mM NaH2PO4 150 mM NaCl pH7 to 31.25 mM GuHCl 50 mM NaH2PO4 150 mM NaCl pH7] in duplicate. To the first set of wells, NiSO4 was added to a final concentration of 100 μM, whereas the second set contained no NiSO4. The plate was incubated for 5 minutes and the kinetics read at 492 nm using a SpectroMax reader.

[2] = target: human IgG (human); experiment: surface plasmon resonance, same conditions as BLω-ProG
[3] = FPLC gel filtration (aggregation) of purified fragments; format: physicochemical; conditions: Purification Strategy: Denaturing CRF Ni-NTA
Excerpt: In some cases, following affinity purification of the enzyme fragments, pooled eluates were subjected to size exclusion chromatography using a Superdex200GL column (Amersham cat. 17-5175-01) under the control of a DuoFlow chromatography system (BioRad cat. 760-0037). Gel filtration was used for either polishing of purified enzyme fragments (removal of contaminating proteins) or to determine the proportion of monomeric versus aggregated enzyme fragments after on-column refolding. The protocol was as follows: equilibration with 2 CV of 50 mM NaH2PO4 150 mM NaCl, pH7 at 0.6 ml/min; injection of 250-500 μl of sample at 0.6 ml/min; and isocratic flow of 1 CV of 50 mM NaH2PO4 150 mM NaCl, pH 7 at 0.6 ml/min. See FIG. 7 for exemplary results.

[4] = system: human IgG; experiment: Surface plasmon resonance binding kinetics for human IgG; conditions: SPR
Excerpt: To confirm that the Protein G moiety of BLω-ProG was functional and suitable for testing in our HA format we assessed its binding kinetics for human IgG using surface plasmon resonance. […] A commercially available recombinant protein G, truncated to eliminate binding to human serum albumin, was included as a positive control.

[5] = system: rabbit hyper-immune serum (anti-HSV-1 peptide); format: biochemical; conditions: with BLα-HSV1 (5 nM), hyper-immune serum 1:100
[6] = format: physicochemical
Description: The pellet from a 250 ml overnight induction was lysed in 25 ml of [6 M GuHCl-100 mM NaH2PO4 10 mM Tris pH 8] followed by a 1-hour incubation at 4° C. with shaking at 100 rpm. To enhance lysis, the suspension was sonicated in an ice bath for 5 cycles of 30 seconds on/30 seconds off using a Branson 250 sonifier. After sonication, the lysate was centrifuged at 12,000×g for 30 min (4° C.) and then passed through a 0.2 μm filter to remove cellular debris.
Recombinant His-tagged proteins were purified using a 1 ml HisTrap HP column (Amersham cat. 17-5247-01) under the control of a DuoFlow chromatography system (BioRad cat. 760-0037). The HisTrap column was equilibrated with 10 column volumes (CV) of 8 M urea 100 mM NaH2PO4 10 mM Tris pH 7.5 at a flow rate of 1 ml/min. Cleared E. coli lysates were then loaded onto the column using a Model EP-1 Econopump (BioRad cat. 731-8142) at 0.5 ml/min. The column was washed with 10 CV of 8 M Urea 100 mM NaH2PO4 10 mM Tris pH 6.3. Bound protein was refolded over a 60 CV gradient from 8 M Urea 100 mM NaH2PO4 10 mM Tris 200 mM L-arginine 100 μM GSSG pH 7.5 to 100 mM NaH2PO4 10 mM Tris 200 mM L-arginine 100 μM GSSG pH 7.5 at 1 ml/min. Histidine-tagged proteins were eluted with 10 CV of 250 mM imidazole 50 mM NaH2PO4 150 mM NaCl pH 8, and analysed by PAGE, western blotting, gel filtration and mass spectroscopy.

[7] = Purification Strategy: Denaturing CRF Ni-NTA

Molecule: Tween-20
- concentration at which optimal signal to noise ratio was achieved ([1]; solvents and detergents): 0.15%

Molecule: C[S+](C)[O-] [DMSO]
- concentration at which optimal signal to noise ratio was achieved [1]: 15%

Molecule: CC(C)O [isoproponal, isopropanol]
- concentration at which optimal signal to noise ratio was achieved ([1]; solvents and detergents): 3.75%

Molecule: CO [methanol]
- concentration at which optimal signal to noise ratio was achieved ([1]; solvents and detergents): 7.5%

Molecule: c1c[nH]cn1 [imidazole]
- concentration at which optimal signal to noise ratio was achieved ([1]; imidazole): 12.5 mM
- signal/noise ratio ([1]; imidazole final concentration 6.25 mM): 5.2
- signal/noise ratio ([1]; imidazole final concentration 12.5 mM): 5.3
- signal/noise ratio ([1]; imidazole final concentration 25 mM): 3.7
- signal/noise ratio ([1]; imidazole final concentration 50 mM): 2.1
- signal/noise ratio ([1]; imidazole final concentration 100 mM): 0.8

Molecule: commercially available recombinant protein G, truncated to eliminate binding to human serum albumin
- Kd [2]: 483 nM

Molecule: CCO [ethanol]
- concentration at which optimal signal to noise ratio was achieved [1]: 3.75%
- signal/noise ratio [1]: 7.1 and 8.4 and 8.5 and 5.4

Molecule: Triton-X100
- concentration at which optimal signal to noise ratio was achieved [1]: 0.3%

Molecule: CC#N [acetonitrile]
- concentration at which optimal signal to noise ratio was achieved ([1]; solvents and detergents): 3.75%

Molecule: NC(N)=O [urea]
- concentration at which optimal signal to noise ratio was achieved ([1]; denaturant): 0.5 M

B1: PB11.2: alpha fragment construct containing substitutions V74T and M182T, SEQ ID NO: 6 (protein)
chain: MHPETLVKVKDAEDQLGARVGYIELDLNSGKILESFRPEERFPMMSTFKTLLCGAVLSRIDAGQEQLGRRIHYSQNDLVEYSPVTEKHLTDGMTVRELCSAAITMSDNTAANLLLTTIGGPKELTAFLHNMGDHVTRLDRWEPELNEAIPNDERDTTTPVAMATTLRKLLTGGGGGSHHHHHH
modifications: PB11.2 construct
- FPLC (aggregation) [3]: <+

B2: BLω-ProG: omega fragment fused via (G4S)3 linker to C2 domain of protein G, SEQ ID NO: 83 (protein)
chain: MHHHHHHGGGGSGSTYKLVINGKTLKGETTTEAVDAATAEKVFKQYANDNGVDGEWTYDDATKTFTVTETSGGGGSGGGGSGGGGSASELLTLASRQQLIDWMEADKVAGPLLRSALPAGWFIADKSGAGERGSRGIIAALGPDGKPSRIVVIYTTGSQATMDERDRQIAEIGASLIKHW
modifications: Protein G subunit omega reporter fragment displaying sequence of BLaProGconstruct
- rate of association [4]: slower rate of association than the C2 domain
- rate of dissociation [4]: slower rate of dissociation
- Kd ([4]; read-out: dissociation constant (KD)): 81 nM
- level of activity [5]: highest level of activity

B3: PB15: rearranged full-length (FL) construct of Beta-lactamase, SEQ ID NO: 21 (protein)
chain: MHMHHHHHHEERFPMMSTFKVLLCGAVLSRIDAGQEQLGRRIHYSQNDLVEYSPVTEKHLTDGMTVRELCSAAITMSDNTAANLLLTTIGGPKELTAFLHNMGDHVTRLDRWEPELNEAIPNDERDTTMPVAMATTLRKLLTGELLTLASRQQLIDWMEADKVAGPLLRSALPAGWFIADKSGAGERGSRGIIAALGPDGKPSRIVVIYTTGSQATMDERNRQIAEIGASLIKHWGSGSGHPETLVKVKDAEDQLGARVGYIELDLNSGKILESFRH
modifications: PB15
- Purification (solubility) [6, 7]: >+++
- Purification (solubility) ([6]; Purification Strategy: Native Ni-NTA): <+

B4: PB15.3: rearranged construct of Beta-lactamase with substitutions M182T, I208T and F230Y, SEQ ID NO: 22 (protein)
chain: B3 chain with M129T, I155T, F177Y
modifications: PB15.3 (M182T, I208T, F230Y)
- Purification (solubility) [6, 7]: >+++
